Measured values: publication PMC10713630, “Elucidation of the structural basis for ligand binding and translocation in conserved insect odorant receptor co-receptors” (Nature Communications, 2023)
Several values for one entry are separate records, joined by “and”; a condition that tells them apart may be missing. Equal entries are not always repeated. Entries after “also recorded” stand apart in the source; their conditions may differ.

Key:
DmelOrco T80W = DmelOrco T80W (Drosophila melanogaster, UniProt Q9VNB5, T80W); assay: TEVC recording of VUAA1-induced current, DmelOrco T80W in Xenopus oocytes; type: cell-based; parameters: VUAA1-induced current, T80W: unit not given here; details: for VUAA1-induced current, T80W: individual oocytes
Text: (§1) All Orco gene sequences were optimized[63] for protein expression in Xenopus laevis oocytes with the GenSmartTM Codon optimization Tool and subcloned into a pGEMHE-derived vector. The wildtype gene of Drosophila melanogaster Orco (DmelOrco) was synthesized by Genscript and subcloned with XmaI/XhoI cloning sites. Site-directed mutagenesis of DmelOrco was done by PCR with the Q5® site directed mutagenesis kit (NEB) using primers optimized with the NEBase Changer online tool and following the supplier’s protocol. After transformation of commercial competent bacteria (XL10 Gold) by standard heat-shock protocol and overnight culture in ampicillin-containing LB plates, positive clones were identified by electrophoretic restriction profile and external sequencing (Genewiz). DNAs of positive clones were amplified with Qiagen MidiPrep Kit and the ORF was fully sequenced. For in vitro transcription, DNAs were linearized with restriction enzyme NotI that cuts a unique site in the 3′ region of the polyA tail. The linearized DNAs were purified by the standard phenol:chloroform extraction method and transcribed into mRNA using the T7 ultra mMessage mMachine kit (Thermo Fisher Scientific). mRNAs were purified with the NucleoSpin RNA plus XS kit (Machery-Nagel). DNA and RNA were analyzed by agarose-gel electrophoresis and quantified by spectrophotometry.
(§2) Xenopus laevis oocytes were prepared, as previously described. Briefly, oocytes were defolliculated after surgical retrieval by type 1 A collagenase over 2-3 h under smooth horizontal agitation. They were manually selected and incubated at 19 °C in modified-Barth’s solution (1 mM KCl, 0.82 mM MgSO4, 88 mM NaCl, 2.4 mM NaHCO3, 0.41 mM CaCl2, Ca(NO3)2 0.3 mM, 16 mM HEPES, pH 7.4) supplemented with 100 U mL^−1 of penicillin and streptomycin and 0.1 mg mL^−1 of gentamycin. Each oocyte was micro-injected with the Nanoject instrument (Drummond) with 50 nL of 20 ng of mRNA coding for the Orco of interest. Injected oocytes were incubated individually in 96-well plates for 4 days at 19 °C in the same buffer. Different batches of oocytes have been tested per construct. The results of the mutants of interest have been confirmed by a second set of experiments comparing the amplitudes with WT in the same day and from the same batch of oocytes (Supplementary Fig. 11).
(§3) Whole cell currents were recorded with the two-electrode voltage-clamp (TEVC) technique with the HiClamp robot (MultiChannel System). Microelectrodes were filled with 3 M KCl. The high K^+ buffer used for recordings was composed of 91 mM KCl, 1 mM MgCl2, 1.8 mM CaCl2, 5 mM HEPES, pH 7.4. Membrane voltage was clamped to −50 mV and VUAA1 was applied for 60 s. Data were extracted with M. Vivaudou’s programs[65] and statistically analyzed with Prism 8 (Graphpad).

DmelOrco L141A = DmelOrco L141A (Drosophila melanogaster, UniProt Q9VNB5, L141A); assay: TEVC recording of VUAA1-induced current, DmelOrco L141A in Xenopus oocytes; type: cell-based; details: 500 µM VUAA1, TEVC
Text: as §1, with “For in vitro transcription, DNAs were linearized with restriction enzyme NotI that cuts a unique site in the 3′ region of the polyA tail. The linearized DNAs were purified by the standard phenol:chloroform extraction method and transcribed into mRNA using the T7 ultra mMessage mMachine kit (Thermo Fisher Scientific). mRNAs were purified with the NucleoSpin RNA plus XS kit (Machery-Nagel).” left out, “spectrophotometry. […]” for “spectrophotometry.”
Whole cell currents were recorded with the two-electrode voltage-clamp (TEVC) technique with the HiClamp robot (MultiChannel System). […] Data were extracted with M. Vivaudou’s programs[65] and statistically analyzed with Prism 8 (Graphpad). […]
100 by 500 µM of the ligand VUAA1 and measured by TEVC recordings on DmelOrco WT and mutants […]

DmelOrco I181S = DmelOrco I181S (Drosophila melanogaster, UniProt Q9VNB5, I181S); assay: TEVC recording of VUAA1-induced current, DmelOrco I181S in Xenopus oocytes; type: cell-based; parameters: VUAA1-induced current, i181S / VUAA1-induced current, I181S: unit not given here; details: for VUAA1-induced current, I181S: Fig.4i dose-response
Text: as §1, §2, §3

DmelOrco K373A = DmelOrco K373A (Drosophila melanogaster, UniProt Q9VNB5, K373A); assay: TEVC recording of VUAA1-induced current, DmelOrco K373A in Xenopus oocytes; type: cell-based; parameters: VUAA1-induced current, K373A: unit not given here
Text: as §1, with “The linearized DNAs were purified by the standard phenol:chloroform extraction method and transcribed into mRNA using the T7 ultra mMessage mMachine kit (Thermo Fisher Scientific). mRNAs were purified with the NucleoSpin RNA plus XS kit (Machery-Nagel).” left out, “spectrophotometry. […]” for “spectrophotometry.”
(§4) Whole cell currents were recorded with the two-electrode voltage-clamp (TEVC) technique with the HiClamp robot (MultiChannel System). […] Data were extracted with M. Vivaudou’s programs[65] and statistically analyzed with Prism 8 (Graphpad).

DmelOrco M210L = DmelOrco M210L (Drosophila melanogaster, UniProt Q9VNB5, M210L); assay: TEVC recording of VUAA1-induced current, DmelOrco M210L in Xenopus oocytes; type: cell-based; details: 500 µM VUAA1, TEVC
Text: as §1, with “The linearized DNAs were purified by the standard phenol:chloroform extraction method and transcribed into mRNA using the T7 ultra mMessage mMachine kit (Thermo Fisher Scientific). mRNAs were purified with the NucleoSpin RNA plus XS kit (Machery-Nagel).” left out, “spectrophotometry. […]” for “spectrophotometry.”
as §4

DmelOrco Y390F = DmelOrco Y390F (Drosophila melanogaster, UniProt Q9VNB5, Y390F); assay: TEVC recording of VUAA1-induced current, DmelOrco Y390F in Xenopus oocytes; type: cell-based; details: 500 µM VUAA1, TEVC
Text: as §1, with “The linearized DNAs were purified by the standard phenol:chloroform extraction method and transcribed into mRNA using the T7 ultra mMessage mMachine kit (Thermo Fisher Scientific). mRNAs were purified with the NucleoSpin RNA plus XS kit (Machery-Nagel).” left out, “spectrophotometry. […]” for “spectrophotometry.”
as §4

AgamOrco/AgamOR65 = details: AgamOrco/AgamOR65; ref Tailor et al. 1; cited from earlier work
DmelOrco I79W = DmelOrco I79W (Drosophila melanogaster, UniProt Q9VNB5, I79W); assay: TEVC recording of VUAA1-induced current, DmelOrco I79W in Xenopus oocytes; type: cell-based; parameters: VUAA1-induced current, i79W: unit not given here; details: for VUAA1-induced current, i79W: individual oocytes
Text: as §1, §2, §3

DmelOrco Y400W = DmelOrco Y400W (Drosophila melanogaster, UniProt Q9VNB5, Y400W); assay: TEVC recording of VUAA1-induced current, DmelOrco Y400W in Xenopus oocytes; type: cell-based; details: 500 µM VUAA1, TEVC
Text: as §1, with “The linearized DNAs were purified by the standard phenol:chloroform extraction method and transcribed into mRNA using the T7 ultra mMessage mMachine kit (Thermo Fisher Scientific). mRNAs were purified with the NucleoSpin RNA plus XS kit (Machery-Nagel).” left out, “spectrophotometry. […]” for “spectrophotometry.”
as §4

DmelOrco Y397A = DmelOrco Y397A (Drosophila melanogaster, UniProt Q9VNB5, Y397A); assay: TEVC recording of VUAA1-induced current, DmelOrco Y397A in Xenopus oocytes; type: cell-based; parameters: VUAA1-induced current, Y397A: unit not given here
Text: as §1, with “The linearized DNAs were purified by the standard phenol:chloroform extraction method and transcribed into mRNA using the T7 ultra mMessage mMachine kit (Thermo Fisher Scientific). mRNAs were purified with the NucleoSpin RNA plus XS kit (Machery-Nagel).” left out, “spectrophotometry. […]” for “spectrophotometry.”
as §4

[1] = Fig.4i dose-response, VUAA1 10 µM (Log(M) -5)
[2] = Fig.4i dose-response, VUAA1 25 µM (Log(M) -4.6)
[3] = Fig.4i dose-response, VUAA1 50 µM (Log(M) -4.3)
[4] = Fig.4i dose-response, VUAA1 100 µM (Log(M) -4)
[5] = Fig.4i dose-response, VUAA1 500 µM (Log(M) -3.3)
[6] = Fig.4i dose-response, VUAA1 1000 µM (Log(M) -3)

Chain of DmelOrco Y397A (Q9VNB5 whole entry Y397A, the tested form may be a part): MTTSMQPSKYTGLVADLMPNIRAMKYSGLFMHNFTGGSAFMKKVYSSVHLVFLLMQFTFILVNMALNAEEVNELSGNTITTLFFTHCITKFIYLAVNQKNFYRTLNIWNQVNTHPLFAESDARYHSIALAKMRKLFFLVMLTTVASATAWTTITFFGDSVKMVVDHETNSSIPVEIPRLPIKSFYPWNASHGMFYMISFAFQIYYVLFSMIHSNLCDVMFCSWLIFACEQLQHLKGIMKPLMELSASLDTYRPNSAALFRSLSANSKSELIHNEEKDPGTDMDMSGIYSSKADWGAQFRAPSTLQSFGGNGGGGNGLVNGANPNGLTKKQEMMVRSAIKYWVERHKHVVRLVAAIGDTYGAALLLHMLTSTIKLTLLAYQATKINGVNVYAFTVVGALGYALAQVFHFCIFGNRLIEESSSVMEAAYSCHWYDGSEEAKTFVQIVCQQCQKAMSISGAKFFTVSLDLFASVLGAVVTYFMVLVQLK
Chain of DmelOrco K373A (Q9VNB5 whole entry K373A, the tested form may be a part): as the sequence (Q9VNB5 whole entry Y397A, the tested form may be a part) above, with K373A, A397Y counted along it
Chain of DmelOrco T80W (Q9VNB5 whole entry T80W, the tested form may be a part): as the sequence (Q9VNB5 whole entry Y397A, the tested form may be a part) above, with T80W, A397Y counted along it
Chain of DmelOrco I79W (Q9VNB5 whole entry I79W, the tested form may be a part): as the sequence (Q9VNB5 whole entry Y397A, the tested form may be a part) above, with I79W, A397Y counted along it
Chain of DmelOrco I181S (Q9VNB5 whole entry I181S, the tested form may be a part): as the sequence (Q9VNB5 whole entry Y397A, the tested form may be a part) above, with I181S, A397Y counted along it
Chain of DmelOrco M210L (Q9VNB5 whole entry M210L, the tested form may be a part): as the sequence (Q9VNB5 whole entry Y397A, the tested form may be a part) above, with M210L, A397Y counted along it
Chain of DmelOrco L141A (Q9VNB5 whole entry L141A, the tested form may be a part): as the sequence (Q9VNB5 whole entry Y397A, the tested form may be a part) above, with L141A, A397Y counted along it
Chain of DmelOrco Y390F (Q9VNB5 whole entry Y390F, the tested form may be a part): as the sequence (Q9VNB5 whole entry Y397A, the tested form may be a part) above, with Y390F, A397Y counted along it
Chain of DmelOrco Y400W (Q9VNB5 whole entry Y400W, the tested form may be a part): as the sequence (Q9VNB5 whole entry Y397A, the tested form may be a part) above, with A397Y, Y400W counted along it

CCc1ccc(NC(=O)CSc2nnc(-c3cccnc3)n2CC)cc1 [VUAA1, N-(4-ethylphenyl)−2-((4-ethyl-5-(3-pyridinyl)−4H-1,2,4-triazol-3-yl)thio)acetamide]
Response to VUAA1 compared with WT (DmelOrco T80W; 500 µM VUAA1, TEVC, T80W): significantly reduced or abolished the activation
VUAA1-induced current, T80W (DmelOrco T80W; Fig.4b): 0.01 and 0.63 and 0.07 and 0.04 and 0.05 and 0.57 and 0.84 and 0.02
VUAA1-induced current, T80W (DmelOrco T80W; [1]): 0.03 and 0.06 (2×) and 0.07 and 0.2 (2×) and 0 and 0.12
VUAA1-induced current, T80W (DmelOrco T80W; [2]): 0.05 and 0.08 and 0.11 and 0.35 and 0.01 and 0.07 and 0.14 and 0.15
VUAA1-induced current, T80W (DmelOrco T80W; [3]): 0.09 and 0.1 and 0.13 and 0.45 and 0.01 and 0.05 and 0.31 and 0.15
VUAA1-induced current, T80W (DmelOrco T80W; [4]): 0.12 and 0.1 and 0.13 (2×) and 0.42 and 0 and 0.08 and 0.29
VUAA1-induced current, T80W (DmelOrco T80W; [5]): 0.19 and 0.12 (3×) and 0.14 and 0.45 and 0.01 and 0.07
VUAA1-induced current, T80W (DmelOrco T80W; [6]): 0.26 and 0.16 and 0.18 and 0.47 and 0.02 and 0.23 and 0.31 and 0.1
Imax (DmelOrco T80W; concentration-effect curve of VUAA1, TEVC, T80W): 0.23 µA
Response to VUAA1 compared with WT (DmelOrco L141A): did not induce significant change
EC50 (DmelOrco I181S): 102 µM
Current induced by VUAA1 (median) (DmelOrco I181S; 500 µM VUAA1, TEVC, I181S): 1.40 µA
Response to VUAA1 compared with WT (DmelOrco I181S; 500 µM VUAA1, TEVC, I181S): clear loss of VUAA1 activation
VUAA1-induced current, i181S (DmelOrco I181S; Fig.4b, individual oocytes): 1.9 and 2 and 1.3 and 0.38 and 0.78 and 1.7 and 1.5 and 2.2 and 2.1 and 1.2 and 1.4 and 0.46 and 1.1 and 1.8 and 2.3
VUAA1-induced current, I181S (DmelOrco I181S; VUAA1 10 µM (Log(M) -5), individual oocytes): 0.26 and 0.25 and 0.11
VUAA1-induced current, I181S (DmelOrco I181S; VUAA1 25 µM (Log(M) -4.6), individual oocytes): 0.22 (2×) and 0.2 and 0.06 and 0.1 and 0.03 and 0.21 and 0.09
VUAA1-induced current, I181S (DmelOrco I181S; VUAA1 50 µM (Log(M) -4.3), individual oocytes): 0.39 and 0.35 and 0.1 and 0.28 and 0.07 and 0.3 and 0.34 and 0.19
VUAA1-induced current, I181S (DmelOrco I181S; VUAA1 100 µM (Log(M) -4), individual oocytes): 1.03 and 0.88 and 0.21 and 0.74 and 0.26 and 0.4 and 0.43 and 0.32
VUAA1-induced current, I181S (DmelOrco I181S; VUAA1 500 µM (Log(M) -3.3), individual oocytes): 1.45 and 1.2 and 0.29 and 2.29 and 0.87 and 0.44 and 0.47 and 0.39
VUAA1-induced current, I181S (DmelOrco I181S; VUAA1 1000 µM (Log(M) -3), individual oocytes): 1.69 and 1.33 and 0.34 and 1.97 and 0.83 and 0.44 and 0.5 and 0.43
Imax (DmelOrco I181S; concentration-effect curve of VUAA1, TEVC, I181S): 0.94 µA
Response to VUAA1 compared with WT (DmelOrco K373A; 500 µM VUAA1, TEVC, K373A): did not significantly affect the amplitude of activation; also recorded: did not change the response
VUAA1-induced current, K373A (DmelOrco K373A; Fig.4b, individual oocytes): 6.85 and 4.61 and 2.07 and 4.45 and 3.44 and 3.51 and 4.3 and 6.42 and 4.68 and 7.17 and 5.08
Current induced by VUAA1 (median) (DmelOrco M210L): 6.19 µA
Response to VUAA1 compared with WT (DmelOrco Y390F): did not show significant change
EC50 (AgamOrco/AgamOR65): 37 µM
Response to VUAA1 compared with WT (DmelOrco I79W; 500 µM VUAA1, TEVC, I79W): significantly reduced or abolished the activation
VUAA1-induced current, i79W (DmelOrco I79W; Fig.4b): 0.5 and 0.66 and 0.09 and 0.23 and 0.24 and 0.02 and 0.06 and 0.14 and 0.05
VUAA1-induced current, i79W (DmelOrco I79W; [1]): 0.07 (2×) and 0.12 and 0.2 and 0.01 (3×) and 0.02 and 0.41 and 0.18
VUAA1-induced current, i79W (DmelOrco I79W; [2]): 0.12 and 0.11 and 0.22 and 0.36 and 0.01 (3×) and 0.03 and 0.6 and 0.26
VUAA1-induced current, i79W (DmelOrco I79W; [3]): 0.18 and 0.17 and 0.32 and 0.56 and 0.02 (2×) and 0.03 and 0.05 and 0.68 and 0.28
VUAA1-induced current, i79W (DmelOrco I79W; [4]): 0.23 and 0.22 and 0.41 and 0.7 and 0.02 (2×) and 0.06 and 0.09 and 0.71 and 0.29
VUAA1-induced current, i79W (DmelOrco I79W; [5]): 0.29 and 0.28 and 0.52 and 0.84 and 0.02 and 0.07 and 0.12 and 0.82 and 0.03 and 0.25
VUAA1-induced current, i79W (DmelOrco I79W; [6]): 0.38 and 0.36 and 0.67 and 1.01 and 0.03 and 0.09 and 0.14 and 0.96 and 0.04 and 0.24
Imax (DmelOrco I79W; concentration-effect curve of VUAA1, TEVC, I79W): 0.65 µA
Response to VUAA1 compared with WT (DmelOrco Y400W): did not significantly change the response
Response to VUAA1 compared with WT (DmelOrco Y397A; 500 µM VUAA1, TEVC, Y397A): did not significantly affect the amplitude of activation; also recorded: did not significantly change the amplitude of activation
VUAA1-induced current, Y397A (DmelOrco Y397A; Fig.4b, individual oocytes): 3.14 and 11.04 and 1.66 and 7.27 and 3.17 and 5.5 and 5.32 and 6.03 and 4.8 and 7.35 and 2.62
